Measurements: patent US8921388B2, “Dihydroxypyrimidine carbonic acid derivatives and their use in the treatment, amelioration or prevention of a viral disease” (priority 2012, dated 2014)

Tested on: influenza A virus A/Aichi/2/68 (H3N2) on MDCK cells
Test: Cytopathic effect (CPE) assay
Assay type: cell-based
Conditions: for IC50: Influenza A virus, H3N2, MDCK, in Canis lupus familiaris, 48 h

SMILES | CPE result in words | IC50 [µM]
O=C(NCc1ccc(Cl)cc1)c1nc(Cc2ccccc2-c2ccccc2)nc(O)c1O | inactive | –
CNC(=O)c1nc(Cc2ccccc2-c2ccccc2)n(C)c(=O)c1O | inactive | –
O=C(O)c1nc(Cc2cc(C(F)(F)F)ccc2Br)nc(O)c1O | inactive | –
COC(=O)c1c(O)c(=O)nc(Cc2ccccc2Br)n1Cc1ccccc1 | – | 34
O=C(NCc1ccc(F)cc1)c1nc(Cc2ccccc2Br)nc(O)c1O | inactive | –
CNC(=O)c1nc(CC2(c3ccccc3)CCCC2)nc(O)c1O | – | 22
CCOC(=O)c1nc(Cc2ccccc2-c2cc(C)ccc2C)nc(O)c1O | – | 9.1
O=C(O)c1c(O)c(=O)nc(Cc2ccccc2Br)n1Cc1ccccc1 | inactive | –
CNC(=O)c1nc(NS(=O)(=O)Cc2cccc(C)c2)n(C)c(=O)c1O | inactive | –
O=C(O)c1nc(CC2(c3ccccc3)CCCC2)nc(O)c1O | – | 49
CNC(=O)c1nc(NS(=O)(=O)Cc2ccccc2)n(C)c(=O)c1O | inactive | –
NC(=O)c1nc(Cc2ccc(F)cc2Br)nc(O)c1O | inactive | –
CCOC(=O)c1nc(Cc2cncn2Cc2ccccc2)nc(O)c1O | inactive | –
COC(=O)c1nc(Cc2ccccc2-c2ccccc2C)nc(O)c1O | inactive | –
CNC(=O)c1nc(Cc2ccccc2-c2ccccc2)nc(O)c1O | inactive | –
O=C(NCc1ccccc1)c1nc(Cc2ccccc2-c2ccccc2)nc(O)c1O | inactive | –
Cn1c(Cc2ccccc2-c2ccccc2)nc(C(N)=O)c(O)c1=O | inactive | –
COC(=O)c1nc(Cc2ccccc2Br)nc(O)c1OC(C)=O | inactive | –
O=C(O)c1nc(Cc2ccc(F)cc2Br)nc(O)c1O | inactive | –
CC(C)NC(=O)c1nc(Cc2ccccc2-c2ccccc2)n(C)c(=O)c1O | inactive | –
CNC(=O)c1nc(Cc2ccccc2-c2cc(C)ccc2C)nc(O)c1O | inactive | –
O=C(O)c1nc(Cc2ccccc2Br)nc(O)c1O | inactive | –
COC(=O)c1nc(Cc2ccc(F)cc2Br)nc(O)c1O | inactive | –
Cn1c(NS(=O)(=O)Cc2ccc(Cl)cc2)nc(C(=O)O)c(O)c1=O | inactive | –
NC(=O)c1nc(CC2(c3ccccc3)CCCC2)nc(O)c1O | – | 42
CNC(=O)c1nc(CC2(c3ccccc3)CCCC2)n(C)c(=O)c1O | – | 11

SMILES | CPE result in words | IC50 [µM]
CC(C)NC(=O)c1nc(Cc2ccccc2-c2ccccc2)nc(O)c1O | – | 23
COC(=O)c1c(O)c(=O)nc(Cc2ccccc2)n1Cc1ccccc1 | inactive | –
CNC(=O)c1nc(NS(=O)(=O)Cc2ccc(Cl)cc2)n(C)c(=O)c1O | inactive | –
O=C(O)c1c(O)c(=O)nc(Cc2ccccc2)n1Cc1ccccc1 | inactive | –
CCOC(=O)c1nc(CC2CCCCC2)nc(O)c1O | inactive | –
COC(=O)c1nc(Cc2ccccc2-c2cc(C)ccc2C)nc(O)c1O | – | 16
O=C(O)c1nc(Cc2ccccc2-c2ccccc2)nc(O)c1O | inactive | –
Cc1ccccc1-c1ccccc1Cc1nc(O)c(O)c(C(=O)O)n1 | inactive | –
Cn1c(Cc2ccccc2-c2ccccc2)nc(C(=O)O)c(O)c1=O | inactive | –
O=C(NCc1ccc(F)cc1)c1nc(Cc2ccccc2-c2ccccc2)nc(O)c1O | – | 10
O=C(c1nc(Cc2ccccc2-c2ccccc2)nc(O)c1O)N1CCCC1 | – | 89
COC(=O)c1nc(CC2CCCCC2)n(C)c(=O)c1O | inactive | –
CNC(=O)c1nc(CC2CCCCC2)nc(O)c1O | inactive | –
COC(=O)c1nc(CC2(c3ccccc3)CCCC2)nc(O)c1O | – | 12
CNC(=O)c1nc(NS(=O)(=O)Cc2ccc(C)cc2)n(C)c(=O)c1O | inactive | –
Cc1ccc(C)c(-c2ccccc2Cc2nc(O)c(O)c(C(=O)O)n2)c1 | inactive | –
O=C(NCCc1ccccc1)c1nc(Cc2ccccc2-c2ccccc2)nc(O)c1O | – | 8
Cc1ccc(C)c(-c2ccccc2Cc2nc(O)c(O)c(C(=O)OC(C)(C)C)n2)c1 | – | 0.11
O=C(NCc1ccccc1)c1nc(CC2(c3ccccc3)CCCC2)nc(O)c1O | inactive | –
O=C(O)c1nc(CC2CCCCC2)nc(O)c1O | inactive | –
Cc1ccccc1Cc1nc(O)c(O)c(C(=O)O)n1 | inactive | –
CNC(=O)c1nc(Cc2ccccc2Br)nc(O)c1O | inactive | –
Cn1c(CC2(c3ccccc3)CCCC2)nc(C(=O)O)c(O)c1=O | inactive | –
O=C(O)c1nc(CC(c2ccccc2)c2ccccc2)nc(O)c1O | inactive | –
O=C(NCc1ccc(Cl)cc1)c1nc(Cc2ccccc2Br)nc(O)c1O | inactive | –
Cc1cccc(-c2ccccc2Cc2nc(O)c(O)c(C(=O)O)n2)c1 | inactive | –
